Test results reported in patent US11492366B2, “Platinum compounds for binding guanine quadruplexes” (QUEEN'S UNIVERSITY AT KINGSTON, priority 2017, dated 2022).

Tests used:
F21RT = assay: FRET melting assay, F21RT; format: binding; conditions: RNA quadruplex; 0.2 μM binder, 0.1 μM oligonucleotide, K+ buffer (1 mM KCl/99 mM LiCl for RNA); dichloride salts
Source text: (§1) All samples tested are guanine quadruplexes except FdxT, which is in duplex form. Binding of G4s by the specified binders of Formula (1) was shown.
(§2) 96-Well plate FRET melting assays were adapted from literature protocols (A. De Rache, J.-L. Mergny, Biochimie (2015),115: 194-202) and conducted using a Strategene Mx3005P real-time PCR apparatus. G4 oligonucleotides labelled with 5′-FAM (6-carboxyfluorescein) and 3′-TAMRA (6-carboxytetramethylrhodamine) fluorophores were folded by rapid annealing in buffer (2 min. at 90° C. followed by cooling in ice). The FAM fluorescent tag was excited at 492 nm and its emission followed at 516 nm while the plates were incubated at 25° C. (5 min.) and then heated (1° C./min) to 95° C. Each condition was repeated in duplicate, and every experiment was repeated at least three times for reproducibility. Final oligonucleotide concentration ([…]) and buffer conditions (10 mM lithium cacodylate, pH 7.2 with either 10 mM potassium chloride/90 mM lithium chloride or 100 mM sodium chloride for DNA, or with 1 mM potassium chloride and 99 mM lithium chloride for RNA) were kept constant. T1/2 values were obtained as the temperature at which the normalized fluorescence emission is 0.5, with ΔT1/2=T1/2 (G4+ binder) — T1/2 (G4). […]

F21T = assay: FRET melting assay, F21T; format: binding; conditions: DNA quadruplex; 0.2 μM binder, 0.1 μM oligonucleotide, K+ buffer; dichloride salts
Source text: as §1, §2

F21CTAT = assay: FRET melting assay, F21CTAT; format: binding; conditions: DNA quadruplex; 0.2 μM binder, 0.1 μM oligonucleotide, K+ buffer; dichloride salts
Source text: as §1, §2

FBom17T = assay: FRET melting assay, FBom17T; format: binding; conditions: DNA quadruplex; 0.2 μM binder, 0.1 μM oligonucleotide, K+ buffer; dichloride salts
Source text: as §1, §2

FTBAT = assay: FRET melting assay, FTBAT; format: binding; conditions: DNA quadruplex; 0.2 μM binder, 0.1 μM oligonucleotide, K+ buffer; dichloride salts
Source text: as §1, §2

Fc-mycT = assay: FRET melting assay, Fc-mycT; format: binding; conditions: DNA quadruplex; 0.2 μM binder, 0.1 μM oligonucleotide, K+ buffer; dichloride salts
Source text: as §1, §2

F25cebT = assay: FRET melting assay, F25cebT; format: binding; conditions: DNA quadruplex; 0.2 μM binder, 0.1 μM oligonucleotide, K+ buffer; dichloride salts
Source text: as §1, §2

FdxT = assay: FRET melting assay, FdxT duplex; format: binding; conditions: DNA duplex; 0.2 μM binder, 0.1 μM oligonucleotide, K+ buffer; dichloride salts
Source text: as §1, §2

22AG [1] = assay: FID titration (thiazole orange displacement) and data fitting; format: binding, human; conditions: K buffer, error 3σ × standard deviation
Method: Specifically, such titrations involve the addition of a binder to a thiazole orange (TO):22AG complex (0.25 or 0.5 μM DNA) in potassium buffer (10 mM lithium cacodylate buffer (pH 7.2) and 100 mM KCl). FIG. 4A provides an example of the blank-, baseline-, and volume-corrected fluorescence spectra obtained from the titration of Pt(2)2 with TO-22AG. […] Previous experiments indicate that the fluorophore binds to the quadruplex in a 1:1 TO:22AG stoichiometry, thus potentially leaving a second binding site unoccupied on the other terminal guanine tetrad of 22AG. […]
FID assays were adapted from literature protocols (Monchaud et al., Biochimie (2008) 90: 1207-23). […] In order to derive binding constants from FID data, fluorescence titrations monitoring the binding of TO to the quadruplex examined were first performed in triplicate. A TO-G4 binding constant was determined by data fitting using the HypSpec2014 software (see below). […]
Experiments were performed in a 1.5 mL cell at 25° C. […] Following a 3 minute equilibrium period after each addition, the fluorescence emission spectrum was recorded (λex=501 nm, λem=510-750 nm, bandwidth 5 nm, step size 1 nm). […]
A blank sample containing only buffer was measured in a 1.5 mL fluorescence cuvette to serve as reference. […]

guanine quadruplexes = assay: FRET melting assays, overall statements; format: binding; conditions: 0.2 μM binder
Source text: as §1, §2

22AG [2] = assay: Circular dichroism titration, 22AG; format: binding, human; conditions: for Binder-induced conformational change of 22AG from hybrid to antiparallel (CD): K+ buffer (100 mM KCl), 0-5 equivalents binder
Method: Referring to FIGS. 3A and 3B, representative CD spectra from titrations where binders are added to A) 22AG and B) c-myc in potassium buffer (10 mM lithium cacodylate buffer (pH 7.2) and 100 mM KCl) are provided. Specifically, these graphs show changes in Δ A upon addition of Pt(11)2 (0-5 equivalents). Such experiments were performed for all novel binders of Formula (1) described in Table 1 with the exception of Pt(6)2.
The latter phenomenon is of particular interest in the case of the polymorphic quadruplex 22AG, which can adopt parallel, hybrid, and/or antiparallel topologies. […] The interactions of all novel binders of Formula (1) except Pt(6)2 (see Table 1) with 22AG and c-myc have been confirmed through similar CD titrations. In FIG. 3A, spectral changes such as the appearance of a peak at […] are consistent with a conformational change from a hybrid to an antiparallel 22AG quadruplex (Randazzo et al, Top. Curr. Chem. (2013) 330: 67-86).
500 μL Aliquots of 22AG and c-myc were folded at 3 μM by rapid annealing (2 min. at 90° C. followed by cooling in ice) in 10 mM lithium cacodylate (pH 7.2) and 100 mM potassium chloride. G4 binders were prepared in the same buffer at 37.5 or 75 μM, such that 0.5 equiv. binder was equivalent to 10 or 20 μL additions. Spectra at 0, 0.5, 1.0, 1.5, 2.0, 3.0, and 5.0 equivalents of binder added to G4 were acquired after 15 minutes of equilibration. Each spectrum was collected using a Jasco J-815 spectrometer with the following experimental parameters: wavelength range: 200-500 nm, data pitch: 1 nm, D.I.T.: 0.5 s, scan speed: 100 nm/min, accumulations: 3. Acquired data was then blank-corrected and baseline-corrected. Curves were smoothed by taking the average of the ellipticity data from the preceding 4 wavelengths as well as the current wavelength.

Row | SMILES | Average Binder-Induced Stabilization of Melting Temperature (ΔT1/2), F21RT (F21RT) [°C] | Average Binder-Induced Stabilization of Melting Temperature (ΔT1/2), F21T (F21T) [°C] | Average Binder-Induced Stabilization of Melting Temperature (ΔT1/2), F21CTAT (F21CTAT) [°C] | Average Binder-Induced Stabilization of Melting Temperature (ΔT1/2), FBom17T (FBom17T) [°C] | Average Binder-Induced Stabilization of Melting Temperature (ΔT1/2), FTBAT (FTBAT) [°C] | Average Binder-Induced Stabilization of Melting Temperature (ΔT1/2), Fc-mycT (Fc-mycT) [°C] | Average Binder-Induced Stabilization of Melting Temperature (ΔT1/2), F25cebT (F25cebT) [°C] | Average Binder-Induced Stabilization of Melting Temperature (ΔT1/2), FdxT (FdxT) [°C] | Average Log(β), 2:1 binder:G4 complex (22AG [1]) [M^−2] | Stabilization / binding of guanine quadruplexes (in words) (guanine quadruplexes) | Binder-induced conformational change of 22AG from hybrid to antiparallel (CD) (22AG [2]) | Preferentially bound topology of human telomeric 22AG (22AG [2]; in potassium)
1 | C[n+]1cc(NC(=O)c2ccc3ccc4ccc(C(=O)Nc5cc6ccccc6[n+](C)c5)nc4c3n2)cc2ccccc21 [Phen-DC3, reference compound] | 13.3 | 16.4 | 11.7 | 3.2 | 6.4 | 11.3 | >8.5 | 0.6 | 16.0 ± 1.3 |  |  | 
2 | C#Cc1ccc2[n+](c1)[Pt-2]1([n+]3cc(C#C)ccc3-c3n4ccccc4n[n+]31)[n+]1nc3ccccn3c1-2 [Pt(6)2] | 4.5 | 0.9 | 1.9 | 0.7 | 1.8 | 0.2 | 0.9 | 0.4 |  | binding was minimal |  | 
3 | CC(C)(C)OC(=O)Nc1ccc2n[n+]3c(n2c1)-c1cccc[n+]1[Pt-2]31[n+]2ccccc2-c2n3cc(NC(=O)OC(C)(C)C)ccc3n[n+]21 [Pt(17)2] |  |  |  |  |  |  |  |  |  |  | no conformational changes are observed | preferentially bind to a hybrid topology
4 | CC(=O)NCC(=O)Nc1ccc2n[n+]3c(n2c1)-c1cccc[n+]1[Pt-2]31[n+]2ccccc2-c2n3cc(NC(=O)CNC(C)=O)ccc3n[n+]21 [Pt(18)2] |  |  |  |  |  |  |  |  |  |  | to a lesser extent | 
5 | CC(=O)NCC(=O)NCC(=O)Nc1ccc2n[n+]3c(n2c1)-c1cccc[n+]1[Pt-2]31[n+]2ccccc2-c2n3cc(NC(=O)CNC(=O)CNC(C)=O)ccc3n[n+]21 [Pt(19)2] |  |  |  |  |  |  |  |  |  |  | to a lesser extent | 
